Results as given in US20210253568A1, “AZAINDOLE DERIVATIVES AS RHO-KINASE INHIBITORS” (CHIESI FARMACEUTICI S.p.A., priority 2018, published 2021).

Tests used:
ROCK 2 = ROCK 2 (Homo sapiens, UniProt O75116); experiment: In vitro Rho kinase inhibitory activity assay (ADP-Glo), Rho kinase 2; format: biochemical; settings: Ki by Cheng-Prusoff from IC50; 10 μM ATP, 25° C., expressed as range of activity
Procedure: (§1) The effectiveness of compounds of the present invention to inhibit Rho kinase activity can be determined in a 10 μl assay containing 40 mM Tris pH7.5, 20 mM MgCl2 0.1 mg/mi BSA, 50 μM DTT and 2.5 μM peptide substrate (Myelin Basic Protein) using an ADP-Glo kit (Promega). Compounds were dissolved in DMSO such that the final concentration of DMSO was 1% in the assay. All reactions/incubations are performed at 25° C. Compound (2 ul) and either Rho kinase 1 or 2 (4 μl) were mixed and incubated for 30 mins. Reactions were initiated by addition of ATP (4 μl) such that the final concentration of ATP in the assay was 10 μM. After a 1 hour incubation 10 μl of ADP-Glo Reagent was added and after a further 45 minute incubation 20 ul of Kinase Detection Buffer was added and the mixture incubated for a further 30 minutes. The luminescent signal was measured on a luminometer. […] Compounds were tested in dose-response format and the inhibition of kinase activity was calculated at each concentration of compound. To determine the IC50 (concentration of compound required to inhibit 50% of the enzyme activity) data were fit to a plot of % inhibition vs Log10 compound concentration using a sigmoidal fit with a variable slope and fixing the maximum to 100% and the minimum to 0%. To determine the Ki values the Cheng-Prusoff equation was utilized (Ki=IC50/(1+[S]/Km).

ROCK 1 = ROCK 1 (Homo sapiens, UniProt Q13464); experiment: In vitro Rho kinase inhibitory activity assay (ADP-Glo), Rho kinase 1; format: biochemical; settings: Ki by Cheng-Prusoff from IC50; 10 μM ATP, 25° C., expressed as range of activity
Procedure: as §1

Sequence of ROCK 2 (O75116 whole entry): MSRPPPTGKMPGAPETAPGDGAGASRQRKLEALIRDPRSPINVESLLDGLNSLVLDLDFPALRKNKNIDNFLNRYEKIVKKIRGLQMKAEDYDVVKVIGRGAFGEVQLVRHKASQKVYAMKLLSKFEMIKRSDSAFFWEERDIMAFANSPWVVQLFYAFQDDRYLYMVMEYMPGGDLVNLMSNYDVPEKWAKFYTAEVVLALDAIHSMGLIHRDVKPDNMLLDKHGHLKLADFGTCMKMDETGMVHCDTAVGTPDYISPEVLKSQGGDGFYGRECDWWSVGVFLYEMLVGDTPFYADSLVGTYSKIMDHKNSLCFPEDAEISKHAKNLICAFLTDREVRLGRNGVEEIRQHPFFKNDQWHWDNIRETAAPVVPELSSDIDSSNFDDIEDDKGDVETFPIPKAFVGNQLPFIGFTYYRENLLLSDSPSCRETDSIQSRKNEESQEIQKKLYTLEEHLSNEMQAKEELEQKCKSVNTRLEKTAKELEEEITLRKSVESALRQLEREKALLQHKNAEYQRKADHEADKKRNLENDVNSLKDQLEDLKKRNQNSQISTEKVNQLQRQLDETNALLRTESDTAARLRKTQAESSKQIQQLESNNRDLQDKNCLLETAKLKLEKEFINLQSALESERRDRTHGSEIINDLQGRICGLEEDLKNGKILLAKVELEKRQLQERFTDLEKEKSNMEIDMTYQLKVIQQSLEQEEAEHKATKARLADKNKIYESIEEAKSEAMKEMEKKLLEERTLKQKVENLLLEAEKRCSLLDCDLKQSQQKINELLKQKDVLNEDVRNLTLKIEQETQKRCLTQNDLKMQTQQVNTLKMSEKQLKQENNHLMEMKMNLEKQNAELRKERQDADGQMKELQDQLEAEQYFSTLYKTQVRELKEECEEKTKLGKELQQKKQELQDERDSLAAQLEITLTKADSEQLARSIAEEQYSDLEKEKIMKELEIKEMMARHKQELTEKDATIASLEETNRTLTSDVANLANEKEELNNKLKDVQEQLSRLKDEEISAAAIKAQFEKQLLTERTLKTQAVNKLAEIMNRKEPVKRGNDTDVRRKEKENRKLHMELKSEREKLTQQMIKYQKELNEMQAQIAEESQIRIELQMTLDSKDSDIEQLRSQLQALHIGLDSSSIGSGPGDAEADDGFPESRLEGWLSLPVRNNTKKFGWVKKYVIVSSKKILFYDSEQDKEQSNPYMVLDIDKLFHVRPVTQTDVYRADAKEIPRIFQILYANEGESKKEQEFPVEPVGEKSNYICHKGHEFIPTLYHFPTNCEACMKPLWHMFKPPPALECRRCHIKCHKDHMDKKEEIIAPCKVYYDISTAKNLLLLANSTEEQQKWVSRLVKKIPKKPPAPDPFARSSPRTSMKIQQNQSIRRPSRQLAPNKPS
Sequence of ROCK 1 (Q13464 whole entry): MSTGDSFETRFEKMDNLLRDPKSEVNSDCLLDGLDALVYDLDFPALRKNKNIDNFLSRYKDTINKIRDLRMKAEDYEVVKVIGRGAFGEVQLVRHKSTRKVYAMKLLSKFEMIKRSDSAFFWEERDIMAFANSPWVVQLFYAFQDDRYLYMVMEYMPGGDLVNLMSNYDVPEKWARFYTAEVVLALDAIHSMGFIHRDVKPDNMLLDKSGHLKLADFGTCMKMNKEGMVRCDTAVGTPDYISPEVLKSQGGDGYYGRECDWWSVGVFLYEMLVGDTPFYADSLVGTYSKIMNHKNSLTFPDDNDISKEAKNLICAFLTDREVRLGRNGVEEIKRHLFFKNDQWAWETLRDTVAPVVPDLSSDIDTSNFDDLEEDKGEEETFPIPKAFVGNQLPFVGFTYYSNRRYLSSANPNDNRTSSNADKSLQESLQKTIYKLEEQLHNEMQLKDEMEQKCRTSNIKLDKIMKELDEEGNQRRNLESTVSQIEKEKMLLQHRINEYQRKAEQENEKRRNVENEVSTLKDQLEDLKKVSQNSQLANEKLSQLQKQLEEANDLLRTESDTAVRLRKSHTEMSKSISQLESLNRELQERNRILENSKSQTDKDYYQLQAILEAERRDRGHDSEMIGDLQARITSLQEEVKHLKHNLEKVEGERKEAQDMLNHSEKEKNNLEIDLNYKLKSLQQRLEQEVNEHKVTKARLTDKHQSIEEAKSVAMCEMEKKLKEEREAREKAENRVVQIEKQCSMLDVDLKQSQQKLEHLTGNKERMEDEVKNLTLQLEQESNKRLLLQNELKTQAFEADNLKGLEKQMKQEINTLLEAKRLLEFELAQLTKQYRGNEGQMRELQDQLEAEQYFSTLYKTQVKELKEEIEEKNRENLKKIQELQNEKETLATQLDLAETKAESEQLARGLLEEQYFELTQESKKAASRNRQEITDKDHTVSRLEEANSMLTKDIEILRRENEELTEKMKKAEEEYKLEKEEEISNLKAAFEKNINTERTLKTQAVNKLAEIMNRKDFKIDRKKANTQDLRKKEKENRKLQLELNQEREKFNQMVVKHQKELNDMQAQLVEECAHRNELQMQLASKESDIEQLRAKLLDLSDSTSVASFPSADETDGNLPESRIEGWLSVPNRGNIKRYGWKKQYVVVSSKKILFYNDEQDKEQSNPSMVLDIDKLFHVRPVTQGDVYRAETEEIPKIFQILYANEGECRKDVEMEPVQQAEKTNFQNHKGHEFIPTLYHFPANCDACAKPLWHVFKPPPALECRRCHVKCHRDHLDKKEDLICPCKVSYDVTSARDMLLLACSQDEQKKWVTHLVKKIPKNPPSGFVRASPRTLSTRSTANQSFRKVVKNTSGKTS

| Ki (ROCK 2) | Ki (ROCK 1) | Structure (SMILES) |
| --- | --- | --- |
| < 3 nM | < 3 nM | c1cc(-c2c[nH]c3nccc(Oc4ccc5c(c4)CNCC5)c23)ccn1 [Example 1, 7-((3-(pyridin-4-yl)-1H-pyrrolo[2,3-b]pyridin-4-yl)oxy)-1,2,3,4-tetrahydroisoquinoline] |
| < 3 nM | 3 to 30 nM | Fc1cc2c(cc1Oc1ncnc3[nH]cc(-c4ccnc(NCc5ccccc5)c4)c13)CNCC2 [Example 6, N-benzyl-4-(4-((6-fluoro-1,2,3,4-tetrahydroisoquinolin-7-yl)oxy)-7H-pyrrolo[2,3-d]pyrimidin-5-yl)pyridin-2-amine] |
| < 3 nM | < 3 nM | NCc1cc(F)c(Oc2ccnc3[nH]cc(-c4ccnc(NCc5cccnc5)c4)c23)c(F)c1 [Example 7, 4-(4-(4-(aminomethyl)-2,6-difluorophenoxy)-1H-pyrrolo[2,3-b]pyridin-3-yl)-N-(pyridin-3-ylmethyl)pyridin-2-amine] |
| < 3 nM | 3 to 30 nM | c1ccc(CNc2cc(-c3c[nH]c4nccc(Oc5ccc6c(c5)CNCC6)c34)on2)cc1 [Example 9, N-benzyl-5-(4-((1,2,3,4-tetrahydroisoquinolin-7-yl)oxy)-1H-pyrrolo[2,3-b]pyridin-3-yl)isoxazol-3-amine] |
| < 3 nM | 3 to 30 nM | O=C(Cn1cc(-c2c[nH]c3nccc(Oc4ccc5c(c4)CNCC5)c23)nn1)NCc1ccccc1 [Example 12, N-benzyl-2-(4-(4-((1,2,3,4-tetrahydroisoquinolin-7-yl)oxy)-1H-pyrrolo[2,3-b]pyridin-3-yl)-1H-1,2,3-triazol-1-yl)acetamide] |
| < 3 nM | 3 to 30 nM | O=C(NCc1ccccc1)c1cc(-c2c[nH]c3nccc(Oc4ccc5c(c4)CNCC5)c23)on1 [Example 13, N-benzyl-5-(4-((1,2,3,4-tetrahydroisoquinolin-7-yl)oxy)-1H-pyrrolo[2,3-b]pyridin-3-yl)isoxazole-3-carboxamide] |
| < 3 nM | < 3 nM | c1cncc(CNc2cc(-c3c[nH]c4nccc(Oc5ccc6c(c5)CNCC6)c34)ccn2)c1 [Example 16, N-(pyridin-3-ylmethyl)-4-(4-((1,2,3,4-tetrahydroisoquinolin-7-yl)oxy)-1H-pyrrolo[2,3-b]pyridin-3-yl)pyridin-2-amine] |
| < 3 nM | < 3 nM | c1cc(-c2c[nH]c3nccc(Oc4ccc5c(c4)CNCC5)c23)cc(N2CCOCC2)n1 [Example 17, 4-(4-(4-((1,2,3,4-tetrahydroisoquinolin-7-yl)oxy)-1H-pyrrolo[2,3-b]pyridin-3-yl)pyridin-2-yl)morpholine] |
| < 3 nM | < 3 nM | c1cc(-c2c[nH]c3nccc(Oc4ccc5c(c4)CNCC5)c23)cc(NC[C@@H]2CCCO2)n1 [Example 18, (S)-N-((tetrahydrofuran-2-yl)methyl)-4-(4-((1,2,3,4-tetrahydroisoquinolin-7-yl)oxy)-1H-pyrrolo[2,3-b]pyridin-3-yl)pyridin-2-amine] |
| < 3 nM | < 3 nM | c1cc(-c2c[nH]c3nccc(Oc4ccc5c(c4)CNCC5)c23)cc(NC[C@H]2CCCO2)n1 [Example 19, (R)-N-((tetrahydrofuran-2-yl)methyl)-4-(4-((1,2,3,4-tetrahydroisoquinolin-7-yl)oxy)-1H-pyrrolo[2,3-b]pyridin-3-yl)pyridin-2-amine] |
| < 3 nM | 3 to 30 nM | COCCNc1cc(-c2c[nH]c3nccc(Oc4ccc5c(c4)CNCC5)c23)ccn1 [Example 20, N-(2-methoxyethyl)-4-(4-((1,2,3,4-tetrahydroisoquinolin-7-yl)oxy)-1H-pyrrolo[2,3-b]pyridin-3-yl)pyridin-2-amine] |
| < 3 nM | < 3 nM | c1ccc(CNc2cc(-c3c[nH]c4nccc(Oc5ccc6c(c5)CNCC6)c34)ncn2)cc1 [Example 25, N-benzyl-6-(4-((1,2,3,4-tetrahydroisoquinolin-7-yl)oxy)-1H-pyrrolo[2,3-b]pyridin-3-yl)pyrimidin-4-amine] |
| < 3 nM | < 3 nM | c1ccc(CNc2nccc(-c3c[nH]c4nccc(Oc5ccc6c(c5)CNCC6)c34)n2)cc1 [Example 26, N-benzyl-4-(4-((1,2,3,4-tetrahydroisoquinolin-7-yl)oxy)-1H-pyrrolo[2,3-b]pyridin-3-yl)pyrimidin-2-amine] |
| > 30 nM | > 30 nM | c1ccc(CNc2cccc(-c3c[nH]c4nccc(Oc5ccc6c(c5)CNCC6)c34)n2)cc1 [Example 27, N-benzyl-6-(4-((1,2,3,4-tetrahydroisoquinolin-7-yl)oxy)-1H-pyrrolo[2,3-b]pyridin-3-yl)pyridin-2-amine] |
| > 30 nM | > 30 nM | c1ccc(CNc2ccnc(-c3c[nH]c4nccc(Oc5ccc6c(c5)CNCC6)c34)n2)cc1 [Example 28, N-benzyl-2-(4-((1,2,3,4-tetrahydroisoquinolin-7-yl)oxy)-1H-pyrrolo[2,3-b]pyridin-3-yl)pyrimidin-4-amine] |
| < 3 nM | < 3 nM | O=S(=O)(CCNc1cc(-c2c[nH]c3nccc(Oc4ccc5c(c4)CNCC5)c23)ncn1)c1ccccc1 [Example 29, N-(2-(phenylsulfonyl)ethyl)-6-(4-((1,2,3,4-tetrahydroisoquinolin-7-yl)oxy)-1H-pyrrolo[2,3-b]pyridin-3-yl)pyrimidin-4-amine] |

Further lines, the compound ahead of its results:

| Structure (SMILES) | Ki (ROCK 2) | Ki (ROCK 1) |
| --- | --- | --- |
| NCc1ccc(Oc2ccnc3[nH]cc(-c4cncc(OCc5ccccc5)c4)c23)cc1 [Example 2, (4-((3-(5-(benzyloxy)pyridin-3-yl)-1H-pyrrolo[2,3-b]pyridin-4-yl)oxy)phenyl)methanamine] | > 30 nM | > 30 nM |
| NCc1ccc(Oc2ccnc3[nH]cc(-c4cccc(OCc5ccccc5)c4)c23)cc1 [Example 3, (4-((3-(3-(benzyloxy)phenyl)-1H-pyrrolo[2,3-b]pyridin-4-yl)oxy)phenyl)methanamine] | > 30 nM | > 30 nM |
| Cc1ccc(S(=O)(=O)CCNc2cc(-c3c[nH]c4nccc(Oc5c(F)cc(CN)cc5F)c34)ncn2)cc1 [Example 4, 6-(4-(4-(aminomethyl)-2,6-difluorophenoxy)-1H-pyrrolo[2,3-b]pyridin-3-yl)-N-(2-tosylethyl)pyrimidin-4-amine] | < 3 nM | < 3 nM |
| NCc1cc(F)c(Oc2ncnc3[nH]cc(-c4ccnc(NCc5ccccc5)c4)c23)c(F)c1 [Example 5, 4-(4-(4-(aminomethyl)-2,6-difluorophenoxy)-7H-pyrrolo[2,3-d]pyrimidin-5-yl)-N-benzylpyridin-2-amine] | < 3 nM | < 3 nM |
| NCc1cc(F)c(Oc2ccnc3[nH]cc(-c4ccnc(NCC5CC5)c4)c23)c(F)c1 [Example 8, 4-(4-(4-(aminomethyl)-2,6-difluorophenoxy)-1H-pyrrolo[2,3-b]pyridin-3-yl)-N-(cyclopropylmethyl)pyridin-2-amine] | < 3 nM | < 3 nM |
| O=C(NC1CC1)C1CCN(c2cc(-c3c[nH]c4nccc(Oc5ccc6c(c5)CNCC6)c34)ccn2)C1 (stereo not shown) [Example 10, N-cyclopropyl-1-(4-(4-((1,2,3,4-tetrahydroisoquinolin-7-yl)oxy)-1H-pyrrolo[2,3-b]pyridin-3-yl)pyridin-2-yl)pyrrolidine-3-carboxamide] | < 3 nM | < 3 nM |
| NCc1cc(F)c(Oc2ccnc3[nH]cc(-c4ccnc(NC(=O)C5CC5)c4)c23)c(F)c1 [Example 11, N-(4-(4-(4-(aminomethyl)-2,6-difluorophenoxy)-1H-pyrrolo[2,3-b]pyridin-3-yl)pyridin-2-yl)cyclopropanecarboxamide] | < 3 nM | < 3 nM |
| O=C(Cc1ccccc1)Nc1nnc(-c2c[nH]c3nccc(Oc4ccc5c(c4)CNCC5)c23)o1 [Example 14, 2-phenyl-N-(5-(4-((1,2,3,4-tetrahydroisoquinolin-7-yl)oxy)-1H-pyrrolo[2,3-b]pyridin-3-yl)-1,3,4-oxadiazol-2-yl)acetamide] | < 3 nM | < 3 nM |
| NCc1ccc(Oc2ccnc3[nH]cc(-c4ccnc(NCc5ccccc5)c4)c23)cc1 [Example 15, 4-(4-(4-(aminomethyl)phenoxy)-1H-pyrrolo[2,3-b]pyridin-3-yl)-N-benzylpyridin-2-amine] | < 3 nM | 3 to 30 nM |
| Cn1cc(-c2c[nH]c3nccc(Oc4ccc5c(c4)CNCC5)c23)cn1 [Example 21, 7-((3-(1-methyl-1H-pyrazol-4-yl)-1H-pyrrolo[2,3-b]pyridin-4-yl)oxy)-1,2,3,4-tetrahydroisoquinoline] | < 3 nM | < 3 nM |
| NCc1ccc(Oc2ccnc3[nH]cc(-c4cnn(Cc5ccccc5)c4)c23)c(F)c1 [Example 22, (4-((3-(1-benzyl-1H-pyrazol-4-yl)-1H-pyrrolo[2,3-b]pyridin-4-yl)oxy)-3-fluorophenyl)methanamine] | < 3 nM | < 3 nM |
| NCc1ccc(Oc2ccnc3[nH]cc(-c4cnn(Cc5ccncc5)c4)c23)c(F)c1 [Example 23, (3-fluoro-4-((3-(1-(pyridin-4-ylmethyl)-1H-pyrazol-4-yl)-1H-pyrrolo[2,3-b]pyridin-4-yl)oxy)phenyl)methanamine] | < 3 nM | 3 to 30 nM |
| NCc1ccc(Oc2ccnc3[nH]cc(-c4cnn(CC5CCOCC5)c4)c23)c(F)c1 [Example 24, (3-fluoro-4-((3-(1-((tetrahydro-2H-pyran-4-yl)methyl)-1H-pyrazol-4-yl)-1H-pyrrolo[2,3-b]pyridin-4-yl)oxy)phenyl)methanamine] | < 3 nM | 3 to 30 nM |
